Measured values reported in ChEMBL document CHEMBL5705899 (Biochem J, 2014).
The source made the active and inactive calls.

Columns and labels:
[1] = target: DNA-dependent protein kinase catalytic subunit (Homo sapiens) (UniProt P78527); experiment: Inhibition of human DNPK1 at 1 uM using RBER-GSK3 as substrate in presence of 33P-ATP by ProQinase assay
[2] = target: Dual specificity tyrosine-phosphorylation-regulated kinase 1A (Homo sapiens) (UniProt Q13627); experiment: Inhibition of human DYRK1A at 1 uM using RBER-CHKtide as substrate in presence of 33P-ATP by ProQinase assay
[3] = target: MAP kinase-interacting serine/threonine-protein kinase 1 (Homo sapiens) (UniProt Q9BUB5); experiment: Inhibition of human MKNK1 at 1 uM using RB-S6P as substrate in presence of 33P-ATP by ProQinase assay
MAP kinase-interacting serine/threonine-protein kinase 1 (Homo sapiens), sequence (Q9BUB5 whole entry, looked up): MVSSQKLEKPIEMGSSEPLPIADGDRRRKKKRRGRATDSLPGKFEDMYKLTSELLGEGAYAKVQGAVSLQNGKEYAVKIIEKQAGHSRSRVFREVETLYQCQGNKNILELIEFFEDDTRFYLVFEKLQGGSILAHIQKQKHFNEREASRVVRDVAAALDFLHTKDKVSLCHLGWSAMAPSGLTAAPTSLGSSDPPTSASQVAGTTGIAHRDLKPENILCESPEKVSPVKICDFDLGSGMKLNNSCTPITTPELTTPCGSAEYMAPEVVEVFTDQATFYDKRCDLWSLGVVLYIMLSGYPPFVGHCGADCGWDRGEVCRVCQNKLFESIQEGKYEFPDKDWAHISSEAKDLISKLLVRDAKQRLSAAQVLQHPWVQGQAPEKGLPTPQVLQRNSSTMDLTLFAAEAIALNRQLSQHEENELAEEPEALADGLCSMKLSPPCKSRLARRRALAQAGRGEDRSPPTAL

[4] = system: RAF proto-oncogene serine/threonine-protein kinase (Homo sapiens), P04049 [Y340D,Y341D]; experiment: Inhibition of human RAF1 Y340D/Y341D double mutant at 1 uM using MEK1-K97M as substrate in presence of 33P-ATP by ProQinase assay
[5] = target: Tau-tubulin kinase 2 (Homo sapiens) (UniProt Q6IQ55); experiment: (§1) Inhibition of recombinant human TTBK2 (1 to 450 residues) expressed in baculovirus infected Sf21 cells assessed as remaining activity at 1 uM using RRKDLHDDEEDEAMSITA as substrate incubated for 30 mins in presence of [gamma-33P]ATP by filter binding method relative to control
[6] = target: Interleukin-1 receptor-associated kinase 4 (Homo sapiens) (UniProt Q9NWZ3); experiment: Inhibition of human IRAK4 at 1 uM using RB-CTF as substrate in presence of 33P-ATP by ProQinase assay
[7] = target: ALK tyrosine kinase receptor (Homo sapiens) (UniProt Q9UM73); experiment: Inhibition of human GST/His-tagged ALK at 1 uM using polyEY as substrate in presence of 33P-ATP by ProQinase assay
[8] = target: Eukaryotic translation initiation factor 2-alpha kinase 3 (Homo sapiens) (UniProt Q9NZJ5); experiment: Inhibition of recombinant human N-terminal GST-tagged EIF2AK3 (536 to 1116 residues) expressed in Escherichia coli assessed as remaining activity at 1 uM using MBP as substrate incubated for 30 mins in presence of [gamma-33P]ATP by filter binding method relative to control
Eukaryotic translation initiation factor 2-alpha kinase 3 (Homo sapiens), sequence (Q9NZJ5 whole entry, the tested form may be a part): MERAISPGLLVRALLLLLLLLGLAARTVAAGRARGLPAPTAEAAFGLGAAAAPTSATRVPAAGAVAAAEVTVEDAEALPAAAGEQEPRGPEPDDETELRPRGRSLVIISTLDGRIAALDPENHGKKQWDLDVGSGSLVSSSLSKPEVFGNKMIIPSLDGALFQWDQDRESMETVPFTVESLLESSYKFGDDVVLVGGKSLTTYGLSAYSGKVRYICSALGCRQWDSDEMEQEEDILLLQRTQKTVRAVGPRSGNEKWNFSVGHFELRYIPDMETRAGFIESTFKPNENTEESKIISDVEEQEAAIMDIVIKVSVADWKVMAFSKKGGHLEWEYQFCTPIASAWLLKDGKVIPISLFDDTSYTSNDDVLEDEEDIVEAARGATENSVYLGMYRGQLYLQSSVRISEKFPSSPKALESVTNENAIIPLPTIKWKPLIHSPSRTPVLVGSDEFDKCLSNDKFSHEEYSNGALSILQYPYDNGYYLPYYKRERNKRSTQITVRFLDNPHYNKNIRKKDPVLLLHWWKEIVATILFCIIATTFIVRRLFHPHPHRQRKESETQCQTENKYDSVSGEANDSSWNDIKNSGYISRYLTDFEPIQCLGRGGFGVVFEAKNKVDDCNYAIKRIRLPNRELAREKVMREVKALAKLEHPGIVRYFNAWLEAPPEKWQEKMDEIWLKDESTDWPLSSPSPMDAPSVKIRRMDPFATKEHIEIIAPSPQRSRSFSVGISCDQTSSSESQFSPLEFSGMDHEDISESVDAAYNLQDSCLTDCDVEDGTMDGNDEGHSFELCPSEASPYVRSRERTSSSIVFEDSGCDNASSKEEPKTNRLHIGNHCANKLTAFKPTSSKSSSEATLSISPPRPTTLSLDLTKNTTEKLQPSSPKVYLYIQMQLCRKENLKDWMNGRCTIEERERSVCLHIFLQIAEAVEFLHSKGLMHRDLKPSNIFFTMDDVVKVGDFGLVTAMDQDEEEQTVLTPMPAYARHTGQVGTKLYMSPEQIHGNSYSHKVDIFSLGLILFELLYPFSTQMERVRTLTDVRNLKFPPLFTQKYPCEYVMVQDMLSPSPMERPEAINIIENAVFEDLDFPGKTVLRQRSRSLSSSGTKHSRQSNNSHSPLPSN

[9] = target: Testis-specific serine/threonine-protein kinase 2 (Homo sapiens) (UniProt Q96PF2); experiment: Inhibition of human TSK2 at 1 uM using RBER-CHKtide as substrate in presence of 33P-ATP by ProQinase assay
Testis-specific serine/threonine-protein kinase 2 (Homo sapiens), sequence (Q96PF2 whole entry): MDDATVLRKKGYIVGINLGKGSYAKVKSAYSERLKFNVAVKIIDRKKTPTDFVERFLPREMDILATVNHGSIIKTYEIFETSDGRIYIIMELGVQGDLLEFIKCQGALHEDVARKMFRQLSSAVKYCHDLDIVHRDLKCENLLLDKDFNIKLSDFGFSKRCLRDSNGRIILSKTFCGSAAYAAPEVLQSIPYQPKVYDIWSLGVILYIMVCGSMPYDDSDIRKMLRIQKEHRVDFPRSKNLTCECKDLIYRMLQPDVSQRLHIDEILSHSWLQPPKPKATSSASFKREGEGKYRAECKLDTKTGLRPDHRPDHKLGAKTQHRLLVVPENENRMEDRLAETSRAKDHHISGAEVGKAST

[10] = target: Dual specificity protein kinase CLK1 (Homo sapiens) (UniProt P49759); experiment: Inhibition of human CLK1 at 1 uM using autophos as substrate in presence of 33P-ATP by ProQinase assay
[11] = target: RAC-beta serine/threonine-protein kinase (Homo sapiens) (UniProt P31751); experiment: Inhibition of human AKT2 at 1 uM using RBER-GSK3 as substrate in presence of 33P-ATP by ProQinase assay
RAC-beta serine/threonine-protein kinase (Homo sapiens), sequence (P31751 whole entry): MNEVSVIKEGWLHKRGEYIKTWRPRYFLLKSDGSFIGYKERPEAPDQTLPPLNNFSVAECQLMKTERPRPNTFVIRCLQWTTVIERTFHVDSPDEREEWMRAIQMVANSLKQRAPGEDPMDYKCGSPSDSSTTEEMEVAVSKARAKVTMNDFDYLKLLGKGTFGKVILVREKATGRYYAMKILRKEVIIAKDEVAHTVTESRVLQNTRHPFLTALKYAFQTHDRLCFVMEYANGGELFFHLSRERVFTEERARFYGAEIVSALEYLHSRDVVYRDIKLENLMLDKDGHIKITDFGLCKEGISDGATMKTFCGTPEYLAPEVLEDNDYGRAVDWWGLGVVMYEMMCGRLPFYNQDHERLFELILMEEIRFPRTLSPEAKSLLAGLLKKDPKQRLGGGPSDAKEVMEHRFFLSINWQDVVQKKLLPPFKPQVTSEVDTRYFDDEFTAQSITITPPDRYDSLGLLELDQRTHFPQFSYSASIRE

[12] = target: Homeodomain-interacting protein kinase 4 (Homo sapiens) (UniProt Q8NE63); experiment: Inhibition of human HIPK4 at 1 uM using RBER-IRStide as substrate in presence of 33P-ATP by ProQinase assay
[13] = target: Sphingosine kinase 1 (Homo sapiens) (UniProt Q9NYA1); experiment: Inhibition of recombinant human N-terminal His6-tagged SPHK1 (1 to 384 residues) expressed in baculovirus expression system at 1 uM using sphingosine as substrate incubated for 40 mins by ADP-Glo assay
[14] = target: Epidermal growth factor receptor (Homo sapiens) (UniProt P00533); experiment: Inhibition of human EGFR at 1 uM using RBER-CHKtide as substrate in presence of 33P-ATP by ProQinase assay
Epidermal growth factor receptor (Homo sapiens), sequence (P00533 whole entry): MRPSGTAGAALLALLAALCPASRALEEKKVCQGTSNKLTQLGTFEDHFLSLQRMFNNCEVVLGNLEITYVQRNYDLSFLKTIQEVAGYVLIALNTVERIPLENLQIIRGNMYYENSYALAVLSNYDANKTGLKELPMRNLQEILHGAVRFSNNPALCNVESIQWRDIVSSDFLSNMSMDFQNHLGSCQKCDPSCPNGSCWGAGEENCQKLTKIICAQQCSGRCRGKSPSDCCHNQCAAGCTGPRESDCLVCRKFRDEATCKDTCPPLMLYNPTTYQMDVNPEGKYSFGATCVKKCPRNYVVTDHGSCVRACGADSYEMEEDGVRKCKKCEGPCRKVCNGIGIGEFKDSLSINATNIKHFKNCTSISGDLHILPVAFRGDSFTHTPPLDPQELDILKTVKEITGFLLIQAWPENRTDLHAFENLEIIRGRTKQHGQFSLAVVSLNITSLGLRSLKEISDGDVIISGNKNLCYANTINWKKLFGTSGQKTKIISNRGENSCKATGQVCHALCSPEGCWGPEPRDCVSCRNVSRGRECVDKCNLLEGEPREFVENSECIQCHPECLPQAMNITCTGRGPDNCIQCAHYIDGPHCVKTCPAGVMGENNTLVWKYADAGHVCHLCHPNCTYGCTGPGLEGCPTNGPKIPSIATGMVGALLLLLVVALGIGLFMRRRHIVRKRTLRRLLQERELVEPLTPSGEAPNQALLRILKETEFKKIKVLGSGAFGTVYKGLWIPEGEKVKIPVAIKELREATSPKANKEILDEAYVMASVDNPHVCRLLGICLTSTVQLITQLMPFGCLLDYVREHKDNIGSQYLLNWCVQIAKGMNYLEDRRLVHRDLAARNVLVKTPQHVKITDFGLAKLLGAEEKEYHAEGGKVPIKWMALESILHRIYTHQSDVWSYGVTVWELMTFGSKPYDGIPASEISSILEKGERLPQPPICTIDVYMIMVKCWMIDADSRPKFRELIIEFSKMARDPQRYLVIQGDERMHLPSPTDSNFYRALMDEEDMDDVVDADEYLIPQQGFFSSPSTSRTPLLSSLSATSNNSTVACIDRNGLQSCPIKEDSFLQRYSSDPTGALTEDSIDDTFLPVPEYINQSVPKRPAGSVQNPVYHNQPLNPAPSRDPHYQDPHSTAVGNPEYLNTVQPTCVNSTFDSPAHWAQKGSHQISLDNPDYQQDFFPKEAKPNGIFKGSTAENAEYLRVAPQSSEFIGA

TAK1/TAB1 (Homo sapiens) = TAK1/TAB1 (Homo sapiens) (UniProt Q15750+O43318); experiment: Inhibition of human MAP3K7/MAP3K7IP1 at 1 uM using RB-S6P as substrate in presence of 33P-ATP by ProQinase assay; assay type: protein-complex assay
[15] = target: Calcium/calmodulin-dependent protein kinase type 1D (Homo sapiens) (UniProt Q8IU85); experiment: Inhibition of human CAMK1D at 1 uM using RBER-CHKtide as substrate in presence of 33P-ATP by ProQinase assay
Calcium/calmodulin-dependent protein kinase type 1D (Homo sapiens), sequence (Q8IU85 whole entry, looked up): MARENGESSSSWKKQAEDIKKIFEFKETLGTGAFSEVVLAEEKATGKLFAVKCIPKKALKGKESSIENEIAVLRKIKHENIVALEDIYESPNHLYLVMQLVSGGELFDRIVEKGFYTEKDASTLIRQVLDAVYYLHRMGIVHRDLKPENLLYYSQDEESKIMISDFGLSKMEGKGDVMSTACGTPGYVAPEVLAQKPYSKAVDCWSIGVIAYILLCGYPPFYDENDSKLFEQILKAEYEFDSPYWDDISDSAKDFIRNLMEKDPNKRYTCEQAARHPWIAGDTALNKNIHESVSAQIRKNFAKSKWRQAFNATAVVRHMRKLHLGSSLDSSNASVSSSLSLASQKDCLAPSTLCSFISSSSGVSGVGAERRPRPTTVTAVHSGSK

[16] = target: Leucine-rich repeat serine/threonine-protein kinase 2 (Homo sapiens) (UniProt Q5S007); experiment: Inhibition of human LRRK2 at 1 uM using RBER-GSK3 as substrate in presence of 33P-ATP by ProQinase assay
[17] = target: Serine/threonine-protein kinase PLK1 (Homo sapiens) (UniProt P53350); experiment: Inhibition of human PLK1 at 1 uM using RBER-CHKtide as substrate in presence of 33P-ATP by ProQinase assay
[18] = target: Serine/threonine-protein kinase Nek7 (Homo sapiens) (UniProt Q8TDX7); experiment: Inhibition of human NEK7 at 1 uM using casein as substrate in presence of 33P-ATP by ProQinase assay
Serine/threonine-protein kinase Nek7 (Homo sapiens), sequence (Q8TDX7 whole entry, looked up, the tested form may be a part): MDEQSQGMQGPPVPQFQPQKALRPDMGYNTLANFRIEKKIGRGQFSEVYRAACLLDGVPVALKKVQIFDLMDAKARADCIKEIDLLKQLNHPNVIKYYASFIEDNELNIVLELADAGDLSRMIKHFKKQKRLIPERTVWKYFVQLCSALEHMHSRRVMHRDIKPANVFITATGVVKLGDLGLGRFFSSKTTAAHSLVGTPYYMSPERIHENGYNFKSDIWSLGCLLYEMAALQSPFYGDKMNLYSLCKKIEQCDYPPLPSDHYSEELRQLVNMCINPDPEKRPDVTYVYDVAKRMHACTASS

[19] = target: MAP kinase-interacting serine/threonine-protein kinase 2 (Homo sapiens) (UniProt Q9HBH9); experiment: Inhibition of recombinant human N-terminal GST/C-terminal His6-tagged MNK2alpha (2 to 465 residues) expressed in Escherichia coli assessed as remaining activity at 1 uM using eIF4E as substrate incubated for 30 mins in presence of [gamma-33P]ATP by filter binding method relative to control
MAP kinase-interacting serine/threonine-protein kinase 2 (Homo sapiens), sequence (Q9HBH9 whole entry, looked up, the tested form may be a part): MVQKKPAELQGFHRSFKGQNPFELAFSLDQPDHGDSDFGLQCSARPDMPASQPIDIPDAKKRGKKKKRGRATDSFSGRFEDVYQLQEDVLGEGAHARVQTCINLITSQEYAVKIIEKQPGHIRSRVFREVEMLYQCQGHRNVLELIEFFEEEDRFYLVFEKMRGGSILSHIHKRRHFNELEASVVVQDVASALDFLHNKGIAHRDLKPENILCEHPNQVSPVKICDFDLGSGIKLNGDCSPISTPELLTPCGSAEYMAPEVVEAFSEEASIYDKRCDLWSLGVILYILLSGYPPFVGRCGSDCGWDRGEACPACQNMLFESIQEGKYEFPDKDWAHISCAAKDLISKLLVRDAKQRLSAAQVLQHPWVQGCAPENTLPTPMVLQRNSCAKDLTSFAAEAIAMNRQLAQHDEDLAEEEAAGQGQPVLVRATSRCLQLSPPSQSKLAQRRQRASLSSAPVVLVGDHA

[20] = system: RAC-beta serine/threonine-protein kinase (Homo sapiens), P31751 [S474D]; experiment: as §1, with “N-terminal His6-tagged PKBbeta S474D mutant (120” for “TTBK2 (1”, “481” for “450”, “crosstide peptide” for “RRKDLHDDEEDEAMSITA”
RAC-beta serine/threonine-protein kinase (Homo sapiens), P31751 [S474D], sequence (P31751 whole entry S474D): as the sequence (P31751 whole entry) above, with S474D counted along it

[21] = target: Serine/threonine-protein kinase DCLK2 (Homo sapiens) (UniProt Q8N568); experiment: Inhibition of human DCAMKL2 at 1 uM using RBER-CHKtide as substrate in presence of 33P-ATP by ProQinase assay
[22] = target: Inhibitor of nuclear factor kappa-B kinase subunit beta (Homo sapiens) (UniProt O14920); experiment: Inhibition of recombinant human N-terminal His6-tagged IKKbeta (1 to 736 residues) expressed in baculovirus infected Sf21 cells assessed as remaining activity at 1 uM using LDDRHDSGLDSMKDEEY as substrate incubated for 30 mins in presence of [gamma-33P]ATP by filter binding method relative to control
[23] = target: NT-3 growth factor receptor (Homo sapiens) (UniProt Q16288); experiment: Inhibition of human TRKC at 1 uM using polyEy as substrate in presence of 33P-ATP by ProQinase assay
[24] = target: Serine/threonine-protein kinase N1 (Homo sapiens) (UniProt Q16512); experiment: Inhibition of human PRK1 at 1 uM using RBER-CHKtide as substrate in presence of 33P-ATP by ProQinase assay
[25] = target: Proto-oncogene tyrosine-protein kinase Src (Homo sapiens) (UniProt P12931); experiment: Inhibition of human GST/His-tagged SRC at 1 uM using PolyEY as substrate in presence of 33P-ATP by ProQinase assay

CC(C)(O)CNc1ncc(-c2ccnc(Nc3ccnc(Cl)c3)n2)c(CC2CC2)n1
88%: Activity [5]
inactive: inhibition [1] | inhibition [2] | inhibition [3] | inhibition [4] | inhibition [6] | inhibition [7] | inhibition [9] | inhibition [10] | inhibition [11] | inhibition [12] | inhibition [13] | inhibition [14] | inhibition (TAK1/TAB1 (Homo sapiens)) | inhibition [15] | inhibition [16] | inhibition [17] | inhibition [18] | inhibition [21] | inhibition [23] | inhibition [24] | inhibition [25]
106%: Activity [22]
123%: Activity [20]
100%: Activity [19]
125%: Activity [8]
